In US6117864A, “Methods employing stable preparation containing azelastine hydrochloride” (ASTA Medica Aktiengesellschaft, priority 1992, dated 2000):
Structures can show the parent of a compound that is named as a salt. Where two headings read alike, the source gives them in different places. Each block holds one molecule with its values, some of them ahead of it.

Tests used:
[1] = Azelastine hydrate production-suppressing effect of each of the additives (azelastine hydrochloride solutions, pH 8); assay type: physicochemical; design: key to Effect Against Production of Azelastine Hydrates: absolutely no hydrate formation; .largecircle.: absolutely no hydrate formation; Δ: hydrate formation decreased compared to the produced water; X: no hydrate production-suppressing effect; settings: for Effect Against Production of Azelastine Hydrates: 0.3 g azelastine hydrochloride in 100 ml, pH 8
Description: The azelastine hydrate production-suppressing effect was tested for each of the additives in azelastine hydro-chloride solutions. Each of the additives were added to 0.3 g of azelastine hydrochloride, the pH was adjusted to 8 with sodium hydroxide, and purified water was added to a total volume of 100 ml to determine whether or not azelastine hydrate crystals were produced. The identification of azelastine hydrate was carried out by filtering off the precipitates produced in the test solutions, drying them at room temperature, measuring thermal analysis (TG-DTA) (FIG. 1) and IR spectrum (azelastine hydrochloride reference standard: FIG. 2; azelastine hydrate: FIG. 3), and then comparing them to the standard.
Cases in which there was absolutely no hydrate formation are represented by [o], cases in which hydrate formation decreased compared to the produced water are represented by [Δ], and cases in which there was no hydrate production-suppressing effect are represented by [X].

[2] = cited from earlier work
[3] = cited from earlier work; for percutaneous absorbability: technique of SHO 63-278108
[4] = cited from earlier work; remark: listed apart in the source
[5] = dependence on pH; cited from earlier work

- suppression of the production of azelastine hydrate (in words) [1]: not exhibited
- Effect Against Production of Azelastine Hydrates ([1]; amount added 0.5%): X
SMILES: CC(=O)O [Acetic Acid, reference compound]

SMILES: CCCCCCCCCCCCCCCCCCCCCC(=O)O [Behenic Acid]
- Effect Against Production of Azelastine Hydrates ([1]; amount added 0.5%): .largecircle.

- suppression of the production of azelastine hydrate (in words) [1]: not exhibited
- Effect Against Production of Azelastine Hydrates ([1]; amount added 0.5%): X
SMILES: CCCC(=O)O [Butyric Acid, reference compound]

- Effect Against Production of Azelastine Hydrates ([1]; amount added 0.5%): .largecircle.
SMILES: CCCCCCCCCC(=O)O [Capric Acid]

SMILES: CCCCCC(=O)O [Caproic Acid, reference compound]
- Effect Against Production of Azelastine Hydrates ([1]; amount added 0.5%): X

- Effect Against Production of Azelastine Hydrates ([1]; amount added 0.5%): Δ
SMILES: CCCCCCCC(=O)O [Caprylic Acid]

SMILES: CCCCCCCC/C=C\CCCCCCCCCCCC(=O)O [Erucid Acid]
- Effect Against Production of Azelastine Hydrates ([1]; amount added 0.5%): .largecircle.

- Effect Against Production of Azelastine Hydrates ([1]; amount added 30%): X
SMILES: CCO [Ethanol, reference compound]

SMILES: CC(C)CCCCCCCCCCCCCCC(=O)O [Isostearic Acid]
- Effect Against Production of Azelastine Hydrates ([1]; amount added 0.5%): .largecircle.

SMILES: CCCCCCCCCCCC(=O)O [Lauric Acid]
- Effect Against Production of Azelastine Hydrates ([1]; amount added 0.5%): .largecircle.

- Effect Against Production of Azelastine Hydrates ([1]; amount added 0.5%): .largecircle.
SMILES: CC/C=C\C/C=C\C/C=C\CCCCCCCC(=O)O [Linolenic Acid]

- Effect Against Production of Azelastine Hydrates ([1]; amount added 0.5%): .largecircle.
SMILES: CCCCC/C=C\C/C=C\CCCCCCCC(=O)O [Linolic Acid]

SMILES: CCCCCCCCCCCCCC(=O)O [Myristic Acid]
- Effect Against Production of Azelastine Hydrates ([1]; amount added 0.1%): Δ
- Effect Against Production of Azelastine Hydrates ([1]; amount added 0.3%): .largecircle.
- Effect Against Production of Azelastine Hydrates ([1]; amount added 0.5%): .largecircle.

SMILES: CCCCCCCC/C=C\CCCCCCCC(=O)O [Oleic Acid]
- Effect Against Production of Azelastine Hydrates ([1]; amount added 0.1%): Δ
- Effect Against Production of Azelastine Hydrates ([1]; amount added 0.3%): .largecircle.
- Effect Against Production of Azelastine Hydrates ([1]; amount added 1% (1 or 1.0)): .largecircle.

- Effect Against Production of Azelastine Hydrates ([1]; amount added 0.5%): .largecircle.
SMILES: CCCCCCCCCCCCCCCC(=O)O [Palmitic Acid]

- Effect Against Production of Azelastine Hydrates ([1]; amount added 0.5%): .largecircle.
SMILES: CCCCCC/C=C\CCCCCCCC(=O)O [Palmitoleic Acid]

- suppression of the production of azelastine hydrate (in words) [1]: not exhibited
- Effect Against Production of Azelastine Hydrates ([1]; amount added 0.3%): X
SMILES: CCC(=O)O [Propionic Acid, reference compound]

SMILES: CC(O)CO (stereo not drawn) [Propylene glycol, reference compound]
- Effect Against Production of Azelastine Hydrates ([1]; amount added 30%): X

SMILES: CCCCCCCCCCCCCCCCCC(=O)O [Stearic Acid]
- Effect Against Production of Azelastine Hydrates ([1]; amount added 0.5%): .largecircle.

SMILES: CN1CCCC(n2nc(Cc3ccc(Cl)cc3)c3ccccc3c2=O)CC1 (stereo not drawn) [azelastine hydrate]
- solubility ([2]; in aqueous preparation, crystalline hydrates of non-dissociation type molecules): poor solubility

SMILES: CN1CCCC(n2nc(Cc3ccc(Cl)cc3)c3ccccc3c2=O)CC1 (stereo not drawn) [azelastine hydrochloride]
- solubility in solvents ([2]; solvents which may be used in pharmaceutical compositions): low solubility
- increase in absorbability ([3]; technique of SHO 61-254532): no increase in absorbability was observed
- percutaneous absorbability ([3]; amount of azelastine hydrochloride high compared to the base): marked improvement
- percutaneous absorbability ([3]; amount of azelastine hydrochloride low compared to the base): poor percutaneous absorbability

SMILES: CN1CCCC(n2nc(Cc3ccc(Cl)cc3)c3ccccc3c2=O)CC1 (stereo not drawn) [azelastine]
- acid dissociation constant (pKa) [4]: approximately 9.5

SMILES: CN1[C@@H]2C[C@@H](OC(=O)[C@H](CO)c3ccccc3)C[C@H]1[C@@H]1O[C@@H]12 [scopolamine]
- percutaneous penetration speed [5]: in direct proportion to the pH
